What was measured:
[1] = NA and DA tissue levels in heart and brain after administration of Compound 1; assay type: in vivo, mice and rats; conditions: mouse and rat, in vivo; mice and rats; after administration
Description: (§1) Compound 1 ((R)-5-(2-aminoethyl)-1-(6,8-difluorochroman-3-yl)-1,3-dihydroimidazole-2-thione hydrochloride) is a new chemical entity that integrates a series of potent inhibitors of dopamine β-hydroxylase (DBH) that were designed and synthesised incorporating modifications to the core structure of nepicastat. The aim was to provide new DBH inhibitors exerting minimal effects on dopamine (DA) and noradrenaline (NA) levels in the brain. Compound 1 is in a fact a potent and peripherally-selective DBH inhibitor. […] Compound 1 is thus presented as a candidate for clinical evaluation for the treatment of chronic heart failure and hypertension. Compound 1, together with a series of related compounds, is described in WO 2004/033447.

[2] = system: dopamine β-hydroxylase (DBH); assay: as above; assay type: in vivo, mice and rats
Description: as §1

[3] = mice and rats, at Tmax (9 h after administration)

## Cl.NCCc1c[nH]c(=S)n1[C@H]1COc2c(F)cc(F)cc2C1 [Compound 1, (R)-5-(2-aminoethyl)-1-(6,8-difluorochroman-3-yl)-1,3-dihydroimidazole-2-thione hydrochloride]
[1]
  Tmax: 9 h
[2]; brain
  DA tissue levels in brain: failed to affect
  NA tissue levels in brain: failed to affect
[2]; [3]
  NA levels in the left atrium: reduced NA levels in a dose-dependent manner
  NA levels in the left ventricle: reduced NA levels in a dose-dependent manner
[2]; mice and rats, left atrium and left ventricle, 9 h after administration
  dose at which the maximal inhibitory effect on NA levels was attained: 100 mg/kg
